Measurements published in ChEMBL document CHEMBL4118096, “Branched Peptides: Acridine and Boronic Acid Derivatives as Antimicrobial Agents” (ACS Med Chem Lett, 2017).
Values after ≈ are worked out from the molar mass of the structure shown. Where a SMILES comes first, the peptide text is derived from it. The star is where a group is joined. Benzoyl(4-B(OH)2) = O=C(c1ccc(B(O)O)cc1)*; Acridin9yl = c1ccc2c(*)c3ccccc3nc2c1; Bz = O=C(c1ccccc1)*

Assays:
Staphylococcus aureus [1] = assay: Antimicrobial activity against methicillin-resistant Staphylococcus aureus ATCC 43300 measured on day 4 by broth microdilution method; assay type: functional; conditions: ATCC 43300, 96 h
Staphylococcus aureus [2] = assay: Antimicrobial activity against Staphylococcus aureus ATCC 6538 measured on day 4 by broth microdilution method; assay type: functional; conditions: ATCC 6538, 96 h
[3] = tested on: Mycolicibacterium smegmatis; assay: Antimicrobial activity against Mycobacterium smegmatis ATCC 607 measured on day 4 by broth microdilution method; assay type: functional; conditions: ATCC 607, 96 h
Candida albicans [4] = assay: Antifungal activity against Candida albicans measured on day 4 by broth microdilution method; assay type: functional; conditions: 96 h
U-87 MG = assay: Cytotoxicity against human U87 cells assessed as decrease in cell viability at 10 uM after 24 hrs by MTT assay; assay type: cell-based; conditions: u-87mg atcc
Escherichia coli = assay: Antimicrobial activity against Escherichia coli C ATCC 13706 measured on day 4 by broth microdilution method; assay type: functional; conditions: C ATCC 13706, 96 h
Aspergillus niger = assay: Antifungal activity against Aspergillus niger measured on day 4 by broth microdilution method; assay type: functional; conditions: 96 h
Candida albicans [5] = assay: Antifungal activity against Candida albicans VT1406 in cell suspension after 24 hrs by XXT/PMS dye based assay; assay type: functional; conditions: VT1406, 24 h
Candida albicans [6] = assay: Antibiofilm activity against Candida albicans VT1406 after 24 hrs by XXT/PMS dye based assay; assay type: functional; conditions: VT1406, 24 h
Candida albicans [7] = assay: Induction of membrane lysis in Candida albicans assessed as maltase release at MIC after 60 mins relative to control; assay type: functional
[8] = Safety index, ratio of EC10 for hemolytic activity in sheep RBC to MIC for Candida albicans; assay type: toxicity; conditions: sheep red blood cells
Erythrocyte = assay: Hemolytic activity in sheep RBC measured after 15 mins; assay type: ADME, cell-based, Ovis aries; conditions: 0.25 h
Saccharomyces cerevisiae = assay: Induction of membrane lysis activity in Saccharomyces cerevisiae assessed as maltase release at MIC after 60 mins relative to control; assay type: functional

| MIC (Staphylococcus aureus [2]) [µg/mL] | MIC [3] [µg/mL] | MIC (Candida albicans [4]) [µg/mL] | MIC (Escherichia coli) [µg/mL] | MIC (Aspergillus niger) [µg/mL] | MIC (Candida albicans [5]) [µg/mL] | MIC (Candida albicans [6]) [µg/mL] | Compound | MIC (Staphylococcus aureus [1]) [µg/mL] | Activity (U-87 MG) | Activity (Candida albicans [7]) [%] | selectivity ratio [8] | EC10 (Erythrocyte) [µg/mL] | Activity (Saccharomyces cerevisiae) [%] |
| --- | --- | --- | --- | --- | --- | --- | --- | --- | --- | --- | --- | --- | --- |
|  |  |  |  |  | 1 (≈ 2.4 µM) | 4 (≈ 9.61 µM) | Clc1ccc(COC(Cn2ccnc2)c2ccc(Cl)cc2Cl)c(Cl)c1 (stereo unspecified) [MICONAZOLE] |  |  |  |  |  |  |
| 16 (≈ 10.7 µM) | 16 (≈ 10.7 µM) | 1 (≈ 0.668 µM) | 16 (≈ 10.7 µM) | 62.5 (≈ 41.8 µM) | 1 (≈ 0.668 µM) | 62.5 (≈ 41.8 µM) | CC(C)C[C@H](NC(=O)[C@H](CCCCNc1c2ccccc2nc2ccccc12)NC(=O)[C@H](CCCCN)NC(=O)[C@H](CCCCN)NC(=O)[C@H](CCCCN)NC(=O)[C@H](CCCCN)NC(=O)[C@H](CCCCN)NC(=O)[C@@H](N)CCCCN)C(=O)N[C@@H](CCCCN)C(=O)N[C@@H](Cc1ccc(O)cc1)C(=O)O (H-KKKKKKK(Acridin9yl)LKY-OH) |  | Non-Toxic | 1 | > 100 | 175 (≈ 117 µM) | 0.95 |
| 16 (≈ 10.7 µM) | 32 (≈ 21.4 µM) | 2 (≈ 1.34 µM) | 8 (≈ 5.34 µM) | 62.5 (≈ 41.8 µM) | 1 (≈ 0.668 µM) | 1 (≈ 0.668 µM) | CC(C)C[C@H](NC(=O)[C@H](CCCCN)NC(=O)[C@H](CCCCN)NC(=O)[C@H](CCCCN)NC(=O)[C@H](CCCCN)NC(=O)[C@H](CCCCN)NC(=O)[C@H](CCCCN)NC(=O)[C@@H](N)CCCCN)C(=O)N[C@@H](CCCCNc1c2ccccc2nc2ccccc12)C(=O)N[C@@H](Cc1ccc(O)cc1)C(=O)O (H-KKKKKKKLK(Acridin9yl)Y-OH) |  | Non-Toxic | 6 | > 100 | > 250 | 0.7 |
| 62.5 (≈ 43.9 µM) | 32 (≈ 22.5 µM) | 1 (≈ 0.702 µM) | 8 (≈ 5.62 µM) | 125 (≈ 87.8 µM) |  |  | CC(C)C[C@H](NC(=O)[C@H](CCCCN)NC(=O)[C@H](CCCCN)NC(=O)[C@H](CCCCN)NC(=O)[C@H](CCCCN)NC(=O)[C@H](CCCCN)NC(=O)[C@H](CCCCN)NC(=O)[C@@H](N)CCCCN)C(=O)N[C@@H](CCCCNC(=O)c1ccccc1)C(=O)N[C@@H](Cc1ccc(O)cc1)C(=O)O (H-KKKKKKKLK(Bz)Y-OH) |  |  | 4 |  |  | 1.8 |

Continued, compound first:

| Compound | MIC (Staphylococcus aureus [2]) [µg/mL] | MIC [3] [µg/mL] | MIC (Candida albicans [4]) [µg/mL] | MIC (Escherichia coli) [µg/mL] | MIC (Aspergillus niger) [µg/mL] | MIC (Candida albicans [5]) [µg/mL] | MIC (Candida albicans [6]) [µg/mL] | MIC (Staphylococcus aureus [1]) [µg/mL] | Activity (U-87 MG) | Activity (Candida albicans [7]) [%] | selectivity ratio [8] | EC10 (Erythrocyte) [µg/mL] | Activity (Saccharomyces cerevisiae) [%] |
| --- | --- | --- | --- | --- | --- | --- | --- | --- | --- | --- | --- | --- | --- |
| NCCCC[C@H](NC(=O)[C@H](CCCCNc1c2ccccc2nc2ccccc12)NC(=O)[C@H](CCCCNc1c2ccccc2nc2ccccc12)NC(=O)[C@H](CCCCN)NC(=O)[C@H](CCCCN)NC(=O)[C@H](CCCCN)NC(=O)[C@H](CCCCN)NC(=O)[C@H](CCCCN)NC(=O)[C@@H](N)CCCCN)C(=O)N[C@@H](Cc1ccc(O)cc1)C(=O)O (H-KKKKKKK(Acridin9yl)K(Acridin9yl)KY-OH) | 1 (≈ 0.592 µM) | 16 (≈ 9.47 µM) | 4 (≈ 2.37 µM) | 8 (≈ 4.74 µM) | 62.5 (≈ 37 µM) |  |  | 62.5 (≈ 37 µM) | Non-Toxic |  |  |  |  |
| CC(C)C[C@H](NC(=O)[C@H](CCCCN)NC(=O)[C@H](CCCCN)NC(=O)[C@H](CCCCN)NC(=O)[C@H](CCCCNc1c2ccccc2nc2ccccc12)NC(=O)[C@H](CCCCN)NC(=O)[C@H](CCCCN)NC(=O)[C@@H](N)CCCCNc1c2ccccc2nc2ccccc12)C(=O)N[C@@H](CCCCNC(=O)c1ccc(B(O)O)cc1)C(=O)N[C@@H](Cc1ccc(O)cc1)C(=O)O (H-K(Acridin9yl)KKK(Acridin9yl)KKKLK(Benzoyl(4-B(OH)2))Y-OH) | 1 (≈ 0.549 µM) | 16 (≈ 8.78 µM) | 8 (≈ 4.39 µM) | 4 (≈ 2.2 µM) | 32 (≈ 17.6 µM) |  |  | 2 (≈ 1.1 µM) | Non-Toxic |  |  |  |  |
| C[C@@H]1[C@H](O)[C@@H](C)/C=C/C=C/C=C/C=C/C=C/C=C/C=C/[C@H](O[C@@H]2O[C@H](C)[C@@H](O)[C@H](N)[C@@H]2O)C[C@@H]2O[C@](O)(C[C@@H](O)C[C@@H](O)[C@H](O)CC[C@@H](O)C[C@@H](O)CC(=O)O[C@H]1C)C[C@H](O)[C@H]2C(=O)O [AMPHOTERICIN B] |  |  |  |  |  | 0.25 (≈ 0.271 µM) | 0.25 (≈ 0.271 µM) |  |  |  |  |  |  |
| CC(C)C[C@H](NC(=O)[C@H](CCCCN)NC(=O)[C@H](CCCCN)NC(=O)[C@H](CCCCNc1c2ccccc2nc2ccccc12)NC(=O)[C@H](CCCCN)NC(=O)[C@H](CCCCN)NC(=O)[C@H](CCCCNc1c2ccccc2nc2ccccc12)NC(=O)[C@@H](N)CCCCN)C(=O)N[C@@H](CCCCNC(=O)c1ccc(B(O)O)cc1)C(=O)N[C@@H](Cc1ccc(O)cc1)C(=O)O (H-KK(Acridin9yl)KKK(Acridin9yl)KKLK(Benzoyl(4-B(OH)2))Y-OH) | 8 (≈ 4.39 µM) | 32 (≈ 17.6 µM) | 2 (≈ 1.1 µM) | 2 (≈ 1.1 µM) | 32 (≈ 17.6 µM) | 2 (≈ 1.1 µM) | 1 (≈ 0.549 µM) |  | Non-Toxic | 1 | > 100 | > 250 | 1.4 |
